Experimental data as given in ChEMBL document CHEMBL1144342, “Synthesis and structure-activity relationship of 4-substituted 2-(2-acetyloxyethyl)-8-(morpholine-4-sulfonyl)pyrrolo[3,4-c]quinoline-1,3-diones as potent caspase-3 inhibitors” (J Med Chem, 2005).

Target: T1, Caspase-3 (Homo sapiens, UniProt P42574)
T1 sequence (P42574 whole entry): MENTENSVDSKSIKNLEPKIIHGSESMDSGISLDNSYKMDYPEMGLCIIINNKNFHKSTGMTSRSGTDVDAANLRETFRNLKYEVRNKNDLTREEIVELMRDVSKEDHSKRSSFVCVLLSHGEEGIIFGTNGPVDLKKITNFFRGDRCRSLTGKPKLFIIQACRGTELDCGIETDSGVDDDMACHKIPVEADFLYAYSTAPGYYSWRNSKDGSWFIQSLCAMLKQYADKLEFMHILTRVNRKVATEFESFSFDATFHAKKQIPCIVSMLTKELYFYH
Assay: In vitro inhibitory concentration against human caspase-3

SMILES	IC50 [µM]
CC(=O)OCCN1C(=O)c2c(/C=C/c3ccc(C(F)(F)F)cc3)nc3ccc(S(=O)(=O)N4CCOCC4)cc3c2C1=O	0.033
CC(=O)OCCN1C(=O)c2c(SC(=N)N)nc3ccc(S(=O)(=O)N4CCOCC4)cc3c2C1=O	0.255
COC(=O)CS(=O)(=O)c1nc2ccc(S(=O)(=O)N3CCOCC3)cc2c2c1C(=O)N(CCOC(C)=O)C2=O	0.362
CC(=O)OCCN1C(=O)c2c(Nc3ccc(F)c(Cl)c3)nc3ccc(S(=O)(=O)N4CCOCC4)cc3c2C1=O	27.9
CC(=O)OCCN1C(=O)c2c(C)nc3ccc(S(=O)(=O)N4CCOCC4)cc3c2C1=O	0.023
CC(=O)OCCN1C(=O)c2c(-c3ccccc3)nc3ccc(S(=O)(=O)N4CCOCC4)cc3c2C1=O	0.027
COC(=O)CSc1nc2ccc(S(=O)(=O)N3CCOCC3)cc2c2c1C(=O)N(CCOC(C)=O)C2=O	1.29
COC(=O)C[S+]([O-])c1nc2ccc(S(=O)(=O)N3CCOCC3)cc2c2c1C(=O)N(CCOC(C)=O)C2=O (configuration not stated)	0.352
CCOC(=O)C[C@@H](Nc1nc2ccc(S(=O)(=O)N3CCOCC3)cc2c2c1C(=O)N(CCOC(C)=O)C2=O)C(=O)OCC	5.19
CC(=O)OCCN1C(=O)c2c(c3cc(S(=O)(=O)N4CCOCC4)ccc3[nH]c2=O)C1=O	10.9
CC(=O)OCCN1C(=O)c2c(C(C)C)nc3ccc(S(=O)(=O)N4CCOCC4)cc3c2C1=O	0.04

More lines, now with the values ahead:

IC50 [µM]	SMILES
0.036	CC(=O)OCCN1C(=O)c2c(-c3ccco3)nc3ccc(S(=O)(=O)N4CCOCC4)cc3c2C1=O
15.4	CC(=O)OCCN1C(=O)c2c(N3CCOCC3)nc3ccc(S(=O)(=O)N4CCOCC4)cc3c2C1=O
0.058	CC(=O)OCCN1C(=O)c2c(-c3ccc(C(=O)N(C)C)cc3)nc3ccc(S(=O)(=O)N4CCOCC4)cc3c2C1=O
0.033	CC(=O)OCCN1C(=O)c2c(-c3ccc(F)c(Cl)c3)nc3ccc(S(=O)(=O)N4CCOCC4)cc3c2C1=O
0.294	CC(=O)OCCN1C(=O)c2c(Cl)nc3ccc(S(=O)(=O)N4CCOCC4)cc3c2C1=O
0.033	CC(=O)OCCN1C(=O)c2c(-c3cccnc3)nc3ccc(S(=O)(=O)N4CCOCC4)cc3c2C1=O
